Measurements reported in paper PMC7321210, “Synthesis and Studies of the Inhibitory Effect of Hydroxylated Phenylpropanoids and Biphenols Derivatives on Tyrosinase and Laccase Enzymes” (Molecules, 2020).
Entries after “also recorded” stand apart in the source; their conditions may differ. Where two headings read alike, the source gives them in different places.

Key:
mushroom tyrosinase = assay: Spectrophotometric (UV-Vis) detection of tyrosinase inhibitory activity; assay type: biochemical; details: for tyrosinase inhibition in words, tyrosine versus dopamine as substrate: UV-Vis, absorbance at 311 or 472 nm, Figure 3
Description: Kinetic assays were carried out by measuring the appearance of the product of either tyrosine or dopamine oxidation in the reaction medium at 311 and 472 nm, respectively, in a Shimadzu UV-2501 spectrophotometer (Shimadzu, Kyoto, Japan) equipped with the UV-Probe software, using a tandem quartz cuvette (Hellma, Milan, Italy) with a 2 × 4.375-mm path length [1, 2, 51]. Briefly, one side of the dual chamber cuvette was filled with 1000 µl of mushroom tyrosinase solution in 50 mM phosphate buffer, pH 6.8, 166 Units/mL using tyrosine as substrate or a 16.6 Units/mL when dopamine was used as substrate. The other chamber was loaded with 980 µL of substrate solution (180 µM tyrosine or 18 µM dopamine) in 20 mM phosphate buffer (pH 6.8) added of either 20 µL of DMSO (control) or 20 µL of a 2 mM (0.2 mM in dopamine experiments) solution of tested inhibitors in DMSO. A background spectrum in the 250–700 nm range was acquired with a 2.0 nm slit and fast speed before starting the reaction. Thereafter, the solutions in the two chambers were mixed by inversion and the UV-Vis spectra were acquired at increasing time intervals. Spectra were recorded at 311 or 472 nm in the presence of the inhibitor before mixing, and after either 24 or 10 min, using tyrosine or dopamine as a substrate, respectively. Data processing was performed with UV Probe and OriginPro 2019 (v. 9.60) softwares.
The mushroom tyrosinase was used as purchased without further purification. All solutions (tyrosinase, substrates and inhibitors) were filtered through a 0.45-μm syringe filter, aliquoted in Eppendorf tubes, and stored in freezer. The relative concentration was determined spectrophotometrically (εtyrosine 274.6 nm = 1420 M^−1·cm^−1; εdopamine at 280 nm = 2670 M^−1·cm^−1; εtyrosinase at 280 nm = 1426 M^−1·cm^−1).
Tyrosine was dissolved in 50 mM phosphate buffer, pH 6.8, final concentration 80 µM and with the added inhibitor (final concentration 20 µM) and tyrosinase (83 U/mL). The absorbance values were determined after 24 min of incubation. In the presence of dopamine, experiments were performed using 10-fold diluted solutions, and the absorbance values were determined after 10 min of incubation.

Tenebrio molitor = assay: Insecticidal properties on mealworm larvae; assay type: in vivo; details: for pest or weed control at 6400 µg/mL: Tenebrio molitor, topical, 120 h, read-out: Mortality% (Mean ± SD)
Description: Late instar larvae of Tenebrio molitor from a twenty-year-old insect culture at the Research Institute on Terrestrial Ecosystems (National Research Council, Sassari, Italy) were used in the experiments. The species was reared on bran flour, with the integration of fresh vegetables, at 25 °C, 65% relative humidity and 16:8 hours light/darkness.
One hundred medium instar larvae were isolated in a petri dishes (diam. 50 mm). They were then immersed for three seconds in 2.5 mL of an acetone solution (concentration 6.4 mg/mL w:v) of one of the fourteen compounds listed in Table 3. In addition, a treatment with the commercial formulation Dimilin (WP, 25% a.i. diflubenzuron) (acetone solution, 25.6 mg/mL w:v) and a negative control (no treatment) were tested.
After treatment, the larvae were subdivided into five 20-specimen groups and reared for five days in a small PVC box (150 L × 120 W × 50 H mm) with the same feed and conditions as standard rearing. Mortality was recorded daily.
The statistical analysis was conducted with the R software (R Development Core Team 2016). Mortality data, expressed as a percentage, were arcsin(√x)-transformed to satisfy assumptions of normality. ANOVA was performed by the Duncan test for mean separation.

tyrosinase [1] = molecular target: T1, tyrosinase (Agaricus bisporus, UniProt C7FF04); details: cited from earlier work; for tyrosinase inhibitory activity compared with biphenol 1: spectrophotometric and electrochemical assays
T1 sequence (C7FF04 2-392): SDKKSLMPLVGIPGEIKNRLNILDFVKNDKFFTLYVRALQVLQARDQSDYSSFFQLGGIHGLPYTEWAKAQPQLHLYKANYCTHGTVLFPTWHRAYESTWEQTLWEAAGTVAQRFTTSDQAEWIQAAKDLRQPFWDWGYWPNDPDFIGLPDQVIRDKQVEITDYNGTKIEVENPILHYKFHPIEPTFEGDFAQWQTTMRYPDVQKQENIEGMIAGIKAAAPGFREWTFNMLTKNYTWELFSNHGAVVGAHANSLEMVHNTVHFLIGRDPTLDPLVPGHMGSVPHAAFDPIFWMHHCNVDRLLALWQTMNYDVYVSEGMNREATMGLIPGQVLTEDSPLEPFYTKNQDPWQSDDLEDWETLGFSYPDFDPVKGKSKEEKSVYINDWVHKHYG

laccase = assay: Laccase amperometric biosensor: IC50 and type of inhibition; assay type: biochemical; details: for VMAX, substrate + inhibitor, LAC: dopamine calibration 0-140 mM after inhibitor exposure, n=4 biosensors; for IC50: enzyme immobilized on biosensor, dopamine 50 µM, PBS pH 6.0; for Type of Inhibition Laccase: Lineweaver-Burk plot, biosensor exposed 30 min to twice the lowest inhibiting concentration
Description: (§1) Inhibition types and IC50 were assessed by means of carbon-based amperometric biosensors [61, 62, 63, 64, 65], that are described in the Supplementary Materials. During the experiments carried out to determine the IC50 values, the lowest inhibitory concentration of each compound was also evaluated.
(§2) To verify the inhibition types, the following protocol was used. An initial calibration with dopamine, ranging between 0 and 140 mM, was performed in order to ascertain the values of VMAX and KM. Another calibration with the same protocol was performed after having exposed the biosensors to twice the lowest inhibiting concentration of each inhibitor, in order to ensure the safe inhibition of enzymatic activity. The biosensors were exposed to the inhibitor for 30 min and after having reached a stabile baseline, a calibration with dopamine, ranging between 0 and 140 mM, was performed and the value of VMAX and KM were calculated. The variations of both VMAX and KM were then analyzed by using the Lineweaver-Burk plot in order to identify the type of inhibition induced by the tested compound. The statistical difference in VMAX and KM, before exposing the biosensors to the inhibitor and then afterwards, was calculated by means of a paired t-test (p < 0.05).
(§3) The biosensors were prepared starting from a Teflon™-insulated silver wire (30 mm in length; Ø = 125 μm),
(§4) Briefly, 1 mm of the silver wire was exposed and then introduced into a silica
(§5) capillary cylinder (10 mm in length; I.D. Ø = 180 μm, Polymicro Technologies, Phoenix, AZ, USA) partly
(§6) packed with graphite-loaded (55% w/w) epoxy resin. By mixing 850 mg of graphite with 500 mg of Araldite-
(§7) M and 200 mg of hardener, a preliminary disc electrode of carbon-composite was fabricated (Ø = 180 μm; area:
(§8) 2.5 × 10−4 cm2) by filling the silica capillary tubing with the mixture. The silver wire assured a good electrical
(§9) contact. After 24 h at 40 °C, the electrode surface was cleaned using a high-speed drill (Dremel® 300) equipped
(§10) with an aluminum oxide grinding wheel. On top of the electrode surface a 1 µl of Tyrosinase or Laccase
(§11) solution was deposited. After the complete evaporation of water at room temperature, the biosensor was
(§12) quickly dipped in the polyurethane solution in order to entrap the enzyme on the electrode surface, and after
(§13) the complete evaporation of the solvent biosensors were put to stabilize in PBS pH=6.0 overnight.
(§14) The electrochemical measurements were performed at room temperature in a classical three-electrode
(§15) electrochemical cell consisting of four biosensors as working electrodes, a reference electrode (Ag/AgCl in
(§16) Constant potential amperometry (CPA) was used for in-vitro calibrations and for inhibition evaluation
(§17) experiments by applying a constant potential of -50 mV against an Ag/AgCl reference electrode, by means of
(§18) a four-channel potentiostat (eDAQ Quadstat, e- Corder 410, eDAQ Europe, Poland) and the software Chart (v
(§19) 5.5, eDAQ Europe, Poland). Thus, once the stabilization of the baseline of biosensors was reached, increasing
(§20) volumes of a stock solution of dopamine 1 M were added in order to obtain different concentrations ranging

PC12 cells [2] = assay: Viability of PC12 cells (MTT assay); assay type: cell-based, rat; details: for Toxic Concentration: cell viability < 80%, screening from 1 to 40 μM, 24 h; for toxicity to cells in words: significant (p < 0.05) decrease in viability vs control, from 5 μM up to 40 μM
Description: Initially, the inhibitor concentrations on PC12 cells, i.e., a rat pheochromocytoma-derived cell line, were screened to assess the possible cytotoxicity of the molecules under study [55].
(§21) 1.4 Viability and oxidative stress assays
(§22) PC12 cells, rat pheochromocytoma-derived cell line (ATCCCRL-1721) (passages 12–25) were maintained at 37
(§23) °C humidified air containing 5% CO2/95% atmospheric air and cultured in a 60 mm plastic culture plates with
(§24) Dulbecco’s modified Eagle’s medium supplemented with 10% horse serum, 5% fetal bovine serum and 1% of
(§25) penicillin/streptomycin. PC12 cells were treated for 24 h with the different compounds at different
concentrations ranging from 1 to 40 μM, to evaluate their eventual toxicity.
(§26) For all treatments cell viability was measured by means of MTT assay, as explained in
the following paragraph [17].
(§27) At the end of the exposure time of each experiment, the cell viability was assessed by means of MTT (3-(4,5-
(§28) dimethyl-thiazol-2-yl)-2,5-diphenyltetrazoliumbromide) assay. For this purpose, 1 mg/mL of MTT was added
(§29) to each sample and incubated for 4 h at 37 °C. Only viable cells are able to convert the soluble dye MTT into
(§30) the insoluble formazan crystals. After the incubation the MTT supernatant solution was removed, the cells
(§31) were washed in phosphate-buffered saline (PBS) and centrifuged while the pellet was dissolved in 2 mL of
(§32) isopropanol. After centrifugation of the solution at 4,000 rpm for 5 min, the absorbance for each sample was
(§33) assessed by means of a Bauty Diagnostic Microplate Reader at 578 nm. All experiments were performed in 24-
(§34) well plates (1 × 10^5 cells/mL/well) and repeated in triplicate.

PC12 cells [3] = assay: Protection of PC12 cells against H2O2-induced oxidative stress (MTT); assay type: cell-based, rat; details: for change of cell viability versus H2O2 alone, in words: co-treatment with 100 μM H2O2, compounds 1 up to 20 μM; for H2O2 Damage Protection: concentration with significant increase in viability vs H2O2, co-treatment with 100 μM H2O2, n.p.: no protection
Description: as §21, §22, §23, §24, §25
concentrations ranging from 1 to 40 μM, to evaluate their eventual toxicity. Then, in order to assess the
eventual compounds’ protection properties, PC12 cell treated with hydrogen peroxide (100μM) in association
with increasing concentration of the above-mentioned molecules, from 1 up to 20 μM.
as §26, §27, §28, §29, §30, §31, §32, §33, §34

tyrosinase [4] = molecular target: T1, tyrosinase; assay: Tyrosinase amperometric biosensor: IC50 and type of inhibition; assay type: biochemical; details: for Type of Inhibition Tyrosinase: Lineweaver-Burk plot, biosensor exposed 30 min to twice the lowest inhibiting concentration; for VMAX, substrate + inhibitor, TYR: dopamine calibration 0-140 mM after inhibitor exposure, n=4 biosensors;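 on all read-outs here: Carbon-composite amperometric tyrosinase biosensors with polyurethane-entrapped enzyme, calibrated in a three-electrode cell against Ag/AgCl at room temperature, before versus after inhibitor exposure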
Description: as §1, §2, §3, §4, §5, §6, §7, §8, §9, §10, §11, §12, §13, §14, §15, §16, §17, §18, §19, §20

[5] = larvae immersed three seconds in 2.5 mL acetone solution 6.4 mg/mL, reared five days, DFB as Dimilin WP 25% a.i., 25.6 mg/mL

| Compound | tyrosinase inhibition in words, tyrosine versus dopamine as substrate (mushroom tyrosinase) | pest or weed control at 6400 µg/mL (Tenebrio molitor; [5]) [%] | type of tyrosinase inhibition (tyrosinase [1]) | tyrosinase inhibitory activity compared with biphenol 1 (tyrosinase [1]) | pest or weed control at 6400 µg/mL (Tenebrio molitor) [%] | VMAX, substrate + inhibitor, LAC (laccase) [nA] | IC50 (laccase) [nM] | Toxic Concentration (PC12 cells [2]) | change of cell viability versus H2O2 alone, in words (PC12 cells [3]) | H2O2 Damage Protection (PC12 cells [3]) | Type of Inhibition Tyrosinase (tyrosinase [4]) | VMAX, substrate + inhibitor, TYR (tyrosinase [4]) [nA] | Type of Inhibition Laccase (laccase) | toxicity to cells in words (PC12 cells [2]) | % inhibition of tyrosinase (mushroom tyrosinase; comparable with both substrates, tyrosine 80 µM, inhibitor 20 µM, 24 min, dopamine 10-fold diluted solutions, 10 min) | insecticidal activity in words (Tenebrio molitor; mealworm larvae, compared with DFB) |
| --- | --- | --- | --- | --- | --- | --- | --- | --- | --- | --- | --- | --- | --- | --- | --- | --- |
| Oc1ccc(-c2ccc(O)cc2)cc1 [Compound 1, 4,4′-dihydroxy-biphenyl, reference compound] | predominant inhibition of tyrosine oxidation | 2 ± 2.74 | classical reversible competitive inhibitor | – | – | – | – | – | – | – | – | – | – | – | – | – |
| Oc1ccc(-c2ccc(O)c(O)c2)cc1O [Compound 2] | – | 4 ± 5.48 | – | higher tyrosinase inhibitory activity than that of biphenol 1 | – | – | – | – | – | – | – | – | – | – | – | – |
| C=CCc1cc(-c2ccc(O)c(CC=C)c2)ccc1O [Compound 3] | – | 3 ± 2.74 | – | higher tyrosinase inhibitory activity than that of biphenol 1 | – | – | – | – | – | – | – | – | – | – | – | – |
| Oc1ccccc1-c1ccccc1O [Compound 4] | – | – | – | – | 3 ± 4.47 | – | – | – | – | – | – | – | – | – | – | – |
| Oc1cccc(O)c1-c1c(O)cccc1O [Compound 5] | – | 16 ± 9.62 | – | higher tyrosinase inhibitory activity than that of biphenol 1 | – | – | – | – | – | – | – | – | – | – | – | – |
| COc1cc(O)cc(-c2cc(O)cc(OC)c2OC)c1OC [Compound 6] | – | 1 ± 2.24 | – | higher tyrosinase inhibitory activity than that of biphenol 1 | – | – | – | – | – | – | – | – | – | – | – | – |
| COc1cc(C=CC(C)=O)ccc1O [Compound 8] | strongly inhibited the oxidation of dopamine compared to that of tyrosine; also recorded: selectivity towards the diphenolasic phase | 10 ± 7.07 | – | – | – | 78.7±8.8 | 218 | 40 µM | significant decrease (p < 0.05 vs H2O2) in cells viability at all concentrations tested | n.p. | – | – | – | – | – | – |
| CC(=O)CCc1ccc(O)c(O)c1 [Compound 9] | strongly inhibited the oxidation of dopamine compared to that of tyrosine; also recorded: selectivity towards the diphenolasic phase | 4 ± 6.51 | – | – | – | 90.5±7.4 | 2240 | >10 µM | significant decrease (p < 0.05 vs H2O2) at a concentration of 20 μM | n.p. | competitively; also recorded: competitive | 183.2±11.1 | competitively; also recorded: competitive | – | – | – |
| COc1cc(/C=C/C(=O)c2ccc(OC)c(OC)c2)ccc1O [Compound 11] | predominant inhibition of tyrosine oxidation | 4 ± 2.24 | – | – | – | 91.0±9.2 | 62 | >10 µM | – | – | competitive | 33.0±1.1 | mixed | toxic to cells | – | – |
| COc1cc(C(=O)/C=C/c2ccc(OC)c(OC)c2)ccc1O [Compound 12] | predominant inhibition of tyrosine oxidation | 0 | – | – | – | 49.5±6.1 | 1040 | >1 µM | – | – | noncompetitive | 63.0±1.962 | competitive | toxic to cells | – | – |
| COc1cc(/C=C/C(=O)C[C@@H]2O[C@H](CO)[C@@H](O)[C@H](O)[C@H]2O)ccc1O [Compound 13] | predominant inhibition of tyrosine oxidation | – | – | – | – | 114.4±9.5 | – | >20 µM | significant decrease (p < 0.05 vs H2O2) at a concentration of 20 μM | n.p. | uncompetitive or mixed; also recorded: uncompetitive | 37.3 ±4.0 | competitive | – | – | – |
| COc1cc(/C=C/C(=O)c2cc(OC)c(OC)c(-c3cc(C(=O)/C=C/c4ccc(O)c(OC)c4)cc(OC)c3OC)c2)ccc1O [Compound 14] | predominant inhibition of tyrosine oxidation | 0 | – | – | – | 110.9±2.4 | – | >5 µM | – | – | mixed | 48.8±4.67 | mixed | toxic to cells | – | – |
| COc1cc(C(=O)/C=C/c2cc(OC)c(OC)c(-c3cc(/C=C/C(=O)c4ccc(O)c(OC)c4)cc(OC)c3OC)c2)ccc1O [Compound 15] | predominant inhibition of tyrosine oxidation | 0 | – | – | – | 93.8±2.9 | 209 | >5 µM | – | – | competitively; also recorded: competitive | 54.3±2.6 | competitively; also recorded: competitive | toxic to cells | – | – |
| COc1ccc(O)c(C(=O)/C=C/c2cc(OC)c(OC)c(-c3cc(/C=C/C(=O)c4cc(OC)ccc4O)cc(OC)c3OC)c2)c1 [Compound 16] | – | – | – | – | – | 139.9±6.4 | 987 | >5 µM | – | – | competitively; also recorded: competitive | 22.2±0.6 | competitively; also recorded: competitive | toxic to cells | about 70% | – |
| CCOC(=O)/C=C/c1cc(OC)c(O)c(-c2cc(/C=C/C(=O)OCC)cc(OC)c2O)c1 [Compound 17] | strongly inhibited the oxidation of dopamine compared to that of tyrosine; also recorded: selectivity towards the diphenolasic phase | – | – | – | – | 96.5±8.3 | 184 | none | – | n.p. | uncompetitive or mixed; also recorded: mixed | 73.7±26 | competitive | – | – | – |
| CC(C)=CCCC(C)(O)/C=C/c1cc(-c2ccc(O)c(/C=C/C(C)(O)CCC=C(C)C)c2)ccc1O (stereo not shown) [Compound 20, 3,3’-bis((E)-3-hydroxy-3,7-dimethylocta-1,6-dien-1-yl)-[1,1’-biphenyl]-4,4’-diol] | strongly inhibited the oxidation of dopamine compared to that of tyrosine; also recorded: selectivity towards the diphenolasic phase | ~65 | – | – | – | 151.6±12.1 | 118 | – | – | – | competitively; also recorded: competitive | 77.4±4.3 | competitively; also recorded: competitive | – | – | some insecticidal activity |
| O=C(NC(=O)c1c(F)cccc1F)Nc1ccc(Cl)cc1 [DFB, N-[(4-chlorophenyl)carbamoyl]-2,6-difluorobenzamide, reference compound] | – | – | – | – | 97 ± 4.47 | – | – | – | – | – | – | – | – | – | – | – |
